{"source": "patent US11389505B2", "about": "“Method of managing joint pain” (ORTHOTROPHIX, INC., priority 2017, dated 2022)", "system": "subjects with osteoarthritis of the knees", "test": "Clinical study of TPX-100, safety and tolerability of intra-articular administration", "type": "in vivo, human", "note": "Ends that are not written are not given here."}
{"substance": "TDLQERGDNDISPFSGDGQPFKD-NH2 [TPX-100]", "values": [{"measurement": "Dose-limiting toxicities", "setting": "Part A, 20, 50, 100 and 200 mg per intra-articular injection, 4 weekly injections", "result": "no dose-limiting toxicities"}, {"measurement": "Severe adverse events related to the drug treatment", "setting": "throughout the study period", "result": "no severe adverse events likely or possibly related to the drug treatment"}, {"measurement": "Severity of treatment-related adverse events", "setting": "throughout the study period", "result": "mild or moderate, transient"}, {"measurement": "Safety and tolerability of treatments", "setting": "throughout the study period (12 months)", "result": "safe and well tolerated"}]}
